Drawing on patent publication US9732068B1, “System for crystalizing chemical compounds and methodologies for utilizing the same” (GenSyn Technologies, Inc., priority 2013, dated 2017), this text covers Span and median particle size for four compounds.

This data set is described as follows: Particle size measurement of crystallized compound with Horiba L950 particle size analyzer. Format: physicochemical. Particulars: for Span: Span=(D90-D10)/D50; for median particle size: final solution after crystallization in system 10. From the text: Just as importantly as desirable small particle sizes is uniformity of particle size distributions (i.e., described by “D values”). D values of “D10”, “D50” and “D90” may be used to represent the midpoint and range of particle sizes of a given sample. The D10 particle size is the diameter at which 10% of a sample's mass is comprised of smaller particles. The D50 is the “mass median diameter” as it divides the sample equally by mass. The D90 particle size is the diameter at which 90% of a sample's mass is comprised of smaller particles.
System 10 of the present invention enables the production of customized particles within a narrow range of particle sizes. A common value used to express the uniformity of particle size distribution is the “span”. The span is a measure of how wide of a spectrum of particle sizes is produced. A system with a low relative span is desirable as it will produce more uniform distribution of particle sizes. Span can be calculated with the equation below: Span=(D90−D10)/D50.
Two grams of Paracetomol was dissolved in 100 grams of ethanol. Two grams of Soy Lecithin was dissolved in 50 grams of tetrahydrofuran (THF). The two solutions were combined and heated to 60° C. The solution was added to the input hopper of a dual piston pump 241. The pump 241 was fed into fluid input conduit 121 of the crystallization chamber 22 through a 0.006″ opening 701 of a nozzle 581. Heptane, at 10° C. was fed into fluid input conduits 122, 123 and 124 through 0.006″, 0.008″ and 0.008″ openings 702, 703, and 704 of nozzles 582, 583, and 584 respectively by an identical piston pump 242. The pressure on both pumps 241 and 242 was adjusted to 1000 psi. The mixed streams exited through fluid output conduit 32 and into fluid reservoir 34 containing approximately 100 ml of heptane. Approximately, the first third and last third of the mixture were discarded and only the central third collected in fluid reservoir 34. The final solution was sampled and the particle size was measured, in heptane, using a Horiba L950 particle size analyzer. The median particle size was about 1.3 microns. The Span was about 0.901.
Two grams of Carbamazepine was dissolved in 100 grams of ethanol. Two grams of Soy Lecithin was dissolved in 50 grams of THF. The two solutions were combined and heated to 60° C. The solution was added to the input hopper of a dual piston pump 241. The pump 241 was fed into fluid input conduit 121 of the crystallization chamber 22 through a 0.004″ opening 701 of a nozzle 581. Heptane, at 10° C. was fed into fluid input conduits 122, 123 and 124 through 0.006″, 0.007″ and 0.007″ openings 702, 703, and 704 of nozzles 582, 583, and 584 respectively by an identical piston pump 242. The pressure on both pumps 241 and 242 was adjusted to 1500 psi. The mixed streams exited through fluid output conduit 32 and into fluid reservoir 34 containing approximately 100 ml of heptane. Approximately, the first third and last third of the mixture were discarded and only the central third collected in fluid reservoir 34. The final solution was sampled and the particle size was measured, in heptane, using a Horiba L950 particle size analyzer. The median particle size was about 1.5 microns. The Span was about 0.916.
Two grams of Ketoprofen was dissolved in 100 grams of DMSO. Two grams of Sorbitan Monostearate was dissolved in 50 grams of THF. The two solutions were combined and heated to 60° C. The solution was added to the input hopper of a dual piston pump 241. The pump 241 was fed into fluid input conduits 121 of the crystallization chamber 22 through a 0.004″ opening 701 of a nozzle 581. DI water with 0.1% Polysorbate 20, at 5° C. was fed into fluid input conduits 122, 123 and 124 through 0.006″, 0.008″ and 0.008″ openings 702, 703, and 704 of nozzles 582, 583, and 584 respectively by an identical piston pump 242. The pressure on both pumps 241 and 242 was adjusted to 1500 psi. […]

As to `CC(C(=O)O)c1cccc(C(=O)c2ccccc2)c1` (racemic) [Ketoprofen, (RS)-2-(3-benzoylphenyl)propanoic acid], where the note is “measured in DI water”, the Span result was “about 1.078” and the median particle size entry was “about 3.1 microns”.
Turning to `CC(C)c1c(C(=O)Nc2ccccc2)c(-c2ccccc2)c(-c2ccc(F)cc2)n1CC[C@@H](O)C[C@@H](O)CC(=O)O` [Atorvastatin, (3R,5R)-7-[2-(4-fluorophenyl)-3-phenyl-4-(phenylcarbamoyl)-5-propan-2-ylpyrrol-1-yl]-3,5-dihydroxyheptanoic acid], where the note is “measured in DI water”, the Span entry is “about 0.99” and the median particle size entry is “about 126 nanometers”.
In the case of `NC(=O)N1c2ccccc2C=Cc2ccccc21` [Carbamazepine, 5H-dibenzo[b,f]azepine-5-carboxamide], where the note is “measured in heptane”, the Span result was “about 0.916” and the median particle size result is recorded as “about 1.5 microns”.
With `CC(=O)Nc1ccc(O)cc1` [Paracetomol, N-(4-hydroxyphenyl)ethanamide], under “measured in heptane”, the Span entry was “about 0.901” and the median particle size entry is on record as “about 1.3 microns”.
